Measurements as given in ChEMBL document CHEMBL5500367, “Improving tumor sensitivity by the introduction of an ester chain to triaryl derivatives targeting PD-1/PD-L1” (Eur J Med Chem, 2024).
Active and inactive are the calls of the source. The calls are words filed in the database; no cut-off is given here.

Key:
[1] = molecular target: Programmed cell death protein 1/Programmed cell death 1 ligand 1 (Homo sapiens, UniProt Q9NZQ7); experiment: Inhibition of PD-1/PD-L1 (unknown origin) interaction incubated for 15 mins by HTRF assay; type: protein-complex assay
Programmed cell death protein 1/Programmed cell death 1 ligand 1, sequence (Q15116 whole entry): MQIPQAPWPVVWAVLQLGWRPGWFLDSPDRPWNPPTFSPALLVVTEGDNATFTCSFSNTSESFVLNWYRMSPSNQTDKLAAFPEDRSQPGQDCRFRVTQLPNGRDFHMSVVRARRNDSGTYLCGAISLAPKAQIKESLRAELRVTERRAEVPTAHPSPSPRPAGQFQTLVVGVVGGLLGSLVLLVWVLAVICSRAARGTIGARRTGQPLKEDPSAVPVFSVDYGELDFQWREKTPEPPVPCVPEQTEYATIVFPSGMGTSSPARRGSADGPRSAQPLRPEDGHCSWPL
Programmed cell death protein 1/Programmed cell death 1 ligand 1, sequence (Q9NZQ7 whole entry): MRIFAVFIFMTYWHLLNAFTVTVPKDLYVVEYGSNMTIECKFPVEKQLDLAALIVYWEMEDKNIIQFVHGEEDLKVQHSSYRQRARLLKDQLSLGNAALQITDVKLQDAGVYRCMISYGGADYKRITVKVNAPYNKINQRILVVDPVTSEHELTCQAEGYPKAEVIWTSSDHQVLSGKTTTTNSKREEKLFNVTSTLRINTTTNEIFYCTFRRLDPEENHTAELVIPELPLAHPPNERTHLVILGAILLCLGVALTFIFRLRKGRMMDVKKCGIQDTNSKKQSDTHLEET

[2] = Cytotoxicity against human PBMC cells assessed as decrease in cell viability at 2.5 to 10 uM incubated for 48 hrs by MTT assay; type: toxicity, cell-based; conditions: dose 2.5-10 µM
A549 [3] = experiment: Cytotoxicity against human A549 cells assessed as inhibition of cell viability incubated for 72 hrs by MTT assay; type: functional, cell-based; conditions: A549, 72 h
NCI-H1299 = experiment: Cytotoxicity against human NCI-H1299 cells assessed as inhibition of cell viability incubated for 72 hrs by MTT assay; type: functional, cell-based; conditions: NCI-H1299, 72 h
HCT-116 = experiment: Cytotoxicity against human HCT-116 cells assessed as inhibition of cell viability incubated for 72 hrs by MTT assay; type: functional, cell-based; conditions: HCT-116, 72 h
A549 [4] = experiment: Cytotoxicity against human A549 cells assessed as decrease in cell viability at 2.5 to 10 uM incubated for 48 hrs by MTT assay; type: functional, cell-based; conditions: dose 2.5-10 µM
MDA-MB-231 = experiment: Cytotoxicity against human MDA-MB-231 cells assessed as inhibition of cell viability incubated for 72 hrs by MTT assay; type: functional, cell-based; conditions: MDA-MB-231, 72 h
[5] = molecular target: Programmed cell death 1 ligand 1 (Homo sapiens, UniProt Q9NZQ7)
Programmed cell death 1 ligand 1, sequence (Q9NZQ7 whole entry): as above
Description: Binding affinity to CM5 chip immobilized recombinant human PD-L1 assessed as association constant by SPR analysis

[6] = Metabolic stability in human liver microsomes assessed as half life by LC-MS/MS analysis; type: ADME, Microsome
[7] = Toxicity in BALB/c mouse allografted with mouse 4T1 cells assessed as body weight loss at 10 to 20 mg/kg, ip treated for 21 days consecutively; type: organism-based; conditions: in vivo, 504 h, dose 10-20 mg/kg, time 21 day
4T1 [8] = experiment: Antitumor activity against mouse 4T1 cells allografted in BALB/c mouse at 20 mg/kg, ip treated for 21 days consecutively relative to control; type: functional; conditions: 4T1, 504 h, time 21 day, read-out: TGI
4T1 [9] = experiment: Antitumor activity against mouse 4T1 cells allografted in BALB/c mouse at 10 mg/kg, ip treated for 21 days consecutively relative to control; type: functional; conditions: 4T1, 504 h, time 21 day, read-out: TGI
[10] = Metabolic stability in human liver microsomes assessed as intrinsic clearance by LC-MS/MS analysis; type: ADME, Microsome
4T1 [11] = experiment: Antitumor activity against mouse 4T1 cells allografted in BALB/c mouse assessed as increase in CD8+ cell infiltration administered intraperitoneally treated for 21 days consecutively by IHC analysis; type: functional, cell-based; conditions: dose 10-20 mg/kg, route ip, time 21.0 day
A549 [12] = experiment: Cytotoxicity against human A549 cells assessed as inhibition of cell viability at 10 uM preincubated with A549 cells for 2 hrs followed by co-culture with CD3/CD28/CD2-activated PBMC cells for 48 hrs by MTT assay relative to control; type: functional; conditions: time 50 hrs
[13] = Toxicity in BALB/c mouse allografted with mouse 4T1 cells assessed as animal death at 10 to 20 mg/kg, ip treated for 21 days consecutively; type: organism-based; conditions: in vivo, 504 h, dose 10-20 mg/kg, time 21 day
[14] = Toxicity in BALB/c mouse allografted with mouse 4T1 cells assessed as drug tolerance at 10 to 20 mg/kg, ip treated for 21 days consecutively; type: organism-based; conditions: in vivo, 504 h, dose 10-20 mg/kg, time 21 day

In the case of `COc1cc(OC(=O)c2cccc(-c3ccccc3)c2C)ccc1CNCCCO`, the IC50 [1] is reported as greater than 1 µM.

With `Cc1c(C(=O)Oc2ccc(CN[C@@H](CO)C(=O)O)c(OCc3cccc(C#N)c3)c2C)cccc1-c1ccccc1` the IC50 [1] was 0.231 µM.

Work on `COc1cc(OC(=O)c2cccc(-c3ccccc3)c2C)ccc1CNCCN(C)C` yielded an IC50 [1] of 0.358 µM.

With `COc1cc(OC(=O)c2cccc(-c3ccccc3)c2C)ccc1CNC[C@H](O)CO` the IC50 [1] was 0.381 µM.

`Cc1cc(OC(=O)c2cccc(-c3ccccc3)c2C)cc(OCc2cccc(C#N)c2)c1CNC[C@H](O)CO` showed an IC50 [1] of 0.254 µM.

For `Cc1c(C(=O)Oc2ccc(CNCCO)c(OCc3cccc(C#N)c3)c2)cccc1-c1ccccc1`, the IC50 [1] was 0.0132 µM, the Activity [2] was “Non-Toxic” and the IC50 (A549 [3]) was 12.7 µM. The IC50 (NCI-H1299) was 7.4 µM, the IC50 (HCT-116) was 7.35 µM and the Activity (A549 [4]) was “inactive”. The IC50 (MDA-MB-231) was 7.68 µM.

Work on `Cc1cc(OC(=O)c2cccc(-c3ccccc3)c2C)cc(OCc2cccc(C#N)c2)c1CNCCO` yielded an IC50 [1] of 0.271 µM.

Work on `Cc1c(C(=O)Oc2cc(OCc3cccc(C#N)c3)c(CNC(CO)CO)cc2Cl)cccc1-c1ccccc1` yielded an IC50 [1] of 0.118 µM.

`COc1cc(OC(=O)c2cccc(-c3ccccc3)c2C)ccc1CNCCO` showed an IC50 [1] of 0.263 µM.

For `COc1cc(OC(=O)c2cccc(-c3ccccc3)c2C)cc(OC)c1CNCC(O)CO` (configuration not stated), the IC50 [1] was 0.228 µM.

In the case of `Cc1c(C(=O)Oc2ccc(CNC(CO)(CO)CO)c(Br)c2)cccc1-c1ccccc1`, the IC50 [1] is reported as 0.00262 µM, the Ka [5] is reported as 1.16 10^5/M/s and the Activity [2] is reported as “Non-Toxic”. The IC50 (A549 [3]) was greater than 20 µM, the IC50 (NCI-H1299) was 18.7 µM and the IC50 (HCT-116) was greater than 20 µM. For the same compound, the Activity (A549 [4]) was “inactive” and the IC50 (MDA-MB-231) was greater than 20 µM.

In the case of `Cc1c(C(=O)Oc2ccc(CN[C@@H](CO)C(=O)O)cc2)cccc1-c1ccccc1`, the IC50 [1] is reported as 0.0175 µM, the Activity [2] is reported as “Non-Toxic” and the IC50 (A549 [3]) is reported as greater than 20 µM. The IC50 (NCI-H1299) was greater than 20 µM, the IC50 (HCT-116) was greater than 20 µM and the Activity (A549 [4]) was “inactive”. The IC50 (MDA-MB-231) was greater than 20 µM.

In the case of `COc1cc(OC(=O)c2cccc(-c3ccccc3)c2C)ccc1CNC[C@@H](O)CO`, the IC50 [1] is reported as 0.302 µM.

Work on `COc1cc(OC(=O)c2cccc(-c3ccccc3)c2C)ccc1CN1CCC(O)CC1` yielded an IC50 [1] of 0.0786 µM.

`Cc1cc(OC(=O)c2cccc(-c3ccccc3)c2C)cc(OCc2cccc(C#N)c2)c1CN[C@H](CO)C(=O)O` gave an IC50 [1] of 0.0395 µM.

Work on `COc1cc(OC(=O)c2cccc(-c3ccccc3)c2C)ccc1CNC(CO)(CO)CO` yielded an IC50 [1] of 0.0724 µM.

With `Cc1cc(OC(=O)c2cccc(-c3ccccc3)c2C)ccc1CN[C@@H](CO)C(=O)O` the IC50 [1] was 0.00225 µM, the Ka [5] was 5.31 10^5/M/s and the Activity [2] was “Non-Toxic”. The IC50 (A549 [3]) was greater than 20 µM, the IC50 (NCI-H1299) was greater than 20 µM and the IC50 (HCT-116) was greater than 20 µM. The Activity (A549 [4]) was “inactive” and the IC50 (MDA-MB-231) was greater than 20 µM.

In the case of `Cc1cc(OC(=O)c2cccc(-c3ccccc3)c2C)cc(OCc2cccc(C#N)c2)c1CNC(CO)(CO)CO`, the IC50 [1] is reported as 0.133 µM.

With `COc1cc(OC(=O)c2cccc(-c3ccccc3)c2C)ccc1CN[C@@H](CO)C(=O)O` the IC50 [1] was 0.0273 µM, the Activity [2] was “Non-Toxic” and the IC50 (A549 [3]) was greater than 20 µM. The IC50 (NCI-H1299) was greater than 20 µM, the IC50 (HCT-116) was greater than 20 µM and the Activity (A549 [4]) was “inactive”. It also gave an IC50 (MDA-MB-231) greater than 20 µM.

Compound `Cc1c(C(=O)Oc2ccc(CN[C@H](CO)C(=O)O)c(OCc3cccc(C#N)c3)c2)cccc1-c1ccccc1` has an IC50 [1] of 0.024 µM.

With `Cc1c(C(=O)Oc2ccc(CN3C[C@H](O)C[C@H]3C(=O)O)c(OCc3cccc(C#N)c3)c2)cccc1-c1ccccc1` the t1/2 [6] was 18.8 min, the Activity [7] was “Non-Toxic” and the inhibition in vivo at 20 mg/kg (4T1 [8]) was 67.8%. For the same compound, the inhibition in vivo at 10 mg/kg (4T1 [9]) was 49.4%, the IC50 [1] was 0.00121 µM and the Ka [5] was 7.9 10^5/M/s. The Activity [2] was “Non-Toxic”, the IC50 (A549 [3]) was greater than 20 µM and the IC50 (NCI-H1299) was greater than 20 µM. The CLH [10] was 100 µL/min/mg, the Activity (4T1 [11]) was “Dose-Dependent Effect” and the inhibition at 10 µM (A549 [12]) was 76.5%. The Activity [13] was “Non-Toxic”, the Activity [14] was “Non-Toxic” and the IC50 (HCT-116) was greater than 20 µM. The Activity (A549 [4]) was “inactive” and the IC50 (MDA-MB-231) was greater than 20 µM.

With `COc1cc(OC(=O)c2cccc(-c3ccccc3)c2C)ccc1CNCCNC(C)=O` the IC50 [1] was 0.893 µM.

In the case of `Cc1c(C(=O)Oc2ccc(CN[C@H](CO)C(=O)O)cc2)cccc1-c1ccccc1`, the IC50 [1] is reported as 0.0551 µM.

For `Cc1c(C(=O)Oc2ccc(CNC(CO)(CO)CO)c(OCc3cccc(C#N)c3)c2C)cccc1-c1ccccc1`, the IC50 [1] was 0.109 µM.

For `Cc1c(COc2cc(OCc3cccc(C#N)c3)c(CN3C[C@H](O)C[C@@H]3C(=O)O)cc2Cl)cccc1-c1ccc2c(c1)OCCO2`, the Activity [2] was “Non-Toxic” and the Activity (A549 [4]) was “inactive”.

For `Cc1c(C(=O)Oc2ccc(CNC(CO)(CO)CO)cc2)cccc1-c1ccccc1`, the IC50 [1] was 0.0256 µM.

`COc1cc(OC(=O)c2cccc(-c3ccccc3)c2C)ccc1CN1CCCC[C@H]1C(=O)O` gave an IC50 [1] greater than 1 µM.

In the case of `COc1cc(OCc2cccc(-c3ccccc3)c2C)cc(OC)c1CN1CCCC[C@H]1C(=O)O`, the t1/2 [6] is reported as 14.2 min, the inhibition in vivo at 20 mg/kg (4T1 [8]) is reported as 33.1% and the Ka [5] is reported as 1.17 10^5/M/s. For the same compound, the Activity [2] was “Non-Toxic”, the CLH [10] was 216 µL/min/mg and the Activity (A549 [4]) was “inactive”.

`Cc1c(C(=O)Oc2ccc(CN[C@@H](CO)C(=O)O)c(OCc3cccc(C#N)c3)c2)cccc1-c1ccccc1` showed an IC50 [1] greater than 1 µM.

For `CC(=O)NCCNCc1ccc(OC(=O)c2cccc(-c3ccccc3)c2C)cc1OCc1cccc(C#N)c1`, the IC50 [1] was 0.506 µM.

`COc1cc(OC(=O)c2cccc(-c3ccccc3)c2C)ccc1CNC(CO)CO` showed an IC50 [1] of 0.0271 µM, an IC50 (A549 [3]) of 18.8 µM and an IC50 (NCI-H1299) of 11.4 µM. The IC50 (HCT-116) was 12.2 µM and the IC50 (MDA-MB-231) was greater than 20 µM.

With `Cc1cc(OC(=O)c2cccc(-c3ccccc3)c2C)ccc1CNC(CO)(CO)CO` the IC50 [1] was 0.00198 µM, the Ka [5] was 4.37 10^5/M/s and the IC50 (A549 [3]) was 18.6 µM. For the same compound, the IC50 (NCI-H1299) was 16.5 µM, the IC50 (HCT-116) was 12.2 µM and the IC50 (MDA-MB-231) was 18.3 µM.

In the case of `Cc1cc(OC(=O)c2cccc(-c3ccccc3)c2C)cc(OCc2cccc(C#N)c2)c1CN[C@@H](CO)C(=O)O`, the IC50 [1] is reported as 0.0643 µM.

For `COc1cc(OC(=O)c2cccc(-c3ccccc3)c2C)ccc1CN1C[C@H](O)C[C@H]1C(=O)O`, the IC50 [1] was 0.113 µM.
